The record followed here is patent publication US5990170A, “Therapeutic use of mono and bicarboxylic acid amides active at the peripheral cannabinoid receptor” (Lifegroup S.p.A., priority 1994, dated 1999).

The test system of one data set is RBL-2H3 cells. As to the kind of experiment: Inhibition of 3H-serotonin release induced by ADNP/DNP-HSA immunogenic stimulation in RBL-2H3 cells. Format: cell-based, rat. The conditions noted are these: for inhibition at 100 µM: 100 μM (Table 8); for EC50: 15 minutes release period (Table 9); for IC50: read-out: ED50, inhibition of 3H-serotonin release, 15 min; for inhibition at 50 µM: 50 μM (Table 8); for inhibition at 30 µM: 30 μM (Table 8).

Data set [1] can be described thus: Solubility in water and organic solvents. The following applies: for solubility: organic solvent or mixture; for solubility in water: result in words.
The mark [2] stands for this setting: Rattus norvegicus, RBL-2H3, read-out: 3H-serotonin release inhibition %, 0.2% DMSO.
[3] abbreviates: Rattus norvegicus, RBL-2H3, read-out: 3H-serotonin release inhibition %, 1% DMSO.
Where [4] appears, read: Rattus norvegicus, RBL-2H3, read-out: EC50, concentration inhibiting by 50% the net release of 3H serotonin, 0.2% DMSO.
Where [5] appears, read: Rattus norvegicus, RBL-2H3, read-out: EC50, concentration inhibiting by 50% the net release of 3H serotonin, 1% DMSO.
Setting [6] is: Rattus norvegicus, RBL-2H3, 0.25 h, 0.1% DMSO and 0.1% ethanol (Table 3), read-out: 3H-serotonin net release (%).

Each structure is given as a SMILES string. Where two headings read alike, the source gives them in different places.

Regarding `CCCCCCCCCCCC(=O)NCCCO` [Example 12, N-(3-hydroxypropyl)-lauroylamide], the inhibition (usually the drop in the measured response relative to a control, in per cent) at 100 µM came to 86% with RBL-2H3 cells (setting [2]) and 100% with RBL-2H3 cells (setting [3]). The EC50 in the data set with RBL-2H3 cells (setting [4]) was 44 µM; in the data set on RBL-2H3 cells (setting [5]), 1.1 µM. The IC50 in the data set on RBL-2H3 cells (+ anandamide (12.5 μM) (Table 5)) came to 29 µM; in the data set on RBL-2H3 cells (- anandamide (Table 5)), 1.1 µM. Also, the solubility in data set [1] (dmso) and in data set [1] (ethanol) was more than 10000 µg/mL each time. In addition, the solubility in water result in data set [1] is “scarcely soluble”.
As to `CCCCCCCCCCCCCCCC(=O)NCCCO` [Example 24, N-(3-hydroxypropyl)-palmitamide], the activity at 60 µM in the data set with RBL-2H3 cells (Rattus norvegicus, RBL-2H3, 0.25 h, 60 μM, 0.1% DMSO and 0.1% ethanol (Table 3), read-out: 3H-serotonin net release (%)) turned out to be 67%. Further, the inhibition at 60 µM with RBL-2H3 cells (Rattus norvegicus, RBL-2H3, read-out: 3H-serotonin release inhibition %, 0.2% DMSO, 60 μM (Table 8)) was 40%. The inhibition at 100 µM with RBL-2H3 cells (setting [3]) turned out to be 88%. Moreover, in the data set with RBL-2H3 cells (setting [5]), the EC50 was found to be 7.2 µM. The values for the solubility in data set [1] (dmso) and in data set [1] (n-octanol) were more than 3000 µg/mL and more than 10000 µg/mL, respectively. Also, in data set [1], the solubility in water result was “scarcely soluble”.
For `CCCCCCCCCCCCCCCCCC(=O)NCc1ccc(O)c(OC)c1` [Example 39, N-(4-hydroxy-3-methoxybenzyl)-stearoylamide], the activity at 50 µM in the data set on RBL-2H3 cells (Rattus norvegicus, RBL-2H3, 0.25 h, read-out: 3H-serotonin net release (%)) worked out at 68%. Also, the inhibition at 50 µM with RBL-2H3 cells (setting [2]) is 32%. In the data set on RBL-2H3 cells (setting [3]), the inhibition at 100 µM was determined as 67%. For the same molecule, the solubility in data set [1] (dmso) and in data set [1] (ethanol) was more than 10000 µg/mL each time. The solubility in water result in data set [1] is given as “scarcely soluble”.
With `CCCCCCCCCCCCCCCC(=O)N[C@H](C)CO` [Example 30, N-palmitoyl-[R(-)-2-amino-1-propanol]], in the data set on RBL-2H3 cells (setting [4]), the EC50 turned out to be 3.9 µM. Also, the solubility (as a rule, the dissolved amount per volume that the medium holds) in data set [1] (dmso) is more than 5000 µg/mL; in data set [1] (ethanol) it was more than 10000 µg/mL. In addition, the solubility in water result in data set [1] is reported as “scarcely soluble”.
`CCCCCCCCCCCC(=O)N[C@H](C)[C@@H](O)c1ccccc1` [Example 6, N-lauroyl-[(1S,2R)-(+)-norephedrine]]: the EC50 in the data set with RBL-2H3 cells (setting [4]) was 30 µM; with RBL-2H3 cells (setting [5]), 8.8 µM. Besides, the solubility in data set [1] (dmso) and in data set [1] (ethanol) was more than 10000 µg/mL in each case. Moreover, in data set [1], the solubility in water result was “scarcely soluble”.
As to `CCCCCCCCCCCCCCCC(=O)NCc1ccc(O)c(OC)c1` [Example 21, N-(4-hydroxy-3-methoxybenzyl)-palmitoylamide], the EC50 with RBL-2H3 cells (setting [4]) was determined as 1.5 µM. Further, the solubility in data set [1] (dmso) and in data set [1] (ethanol) was more than 10000 µg/mL throughout. The solubility in water entry in data set [1] is recorded as “scarcely soluble”.
Turning to `CCCCCCCCCCCCCCCC(=O)N[C@@H](CO)[C@@H](O)c1ccccc1` [Example 4, N-palmitoyl-[(1S,2S)-(+)-2-amino-1-phenyl-1,3-propanediol]], the inhibition at 100 µM in the data set with RBL-2H3 cells (setting [2]) and with RBL-2H3 cells (setting [3]) was 100% in each case. For the same molecule, the EC50 in the data set with RBL-2H3 cells (setting [4]) was 78 µM; in the data set on RBL-2H3 cells (setting [5]), 1.05 µM. Besides, the solubility in data set [1] (dmso) and in data set [1] (ethanol) was more than 10000 µg/mL in each case. Further, the solubility in water entry in data set [1] is recorded as “scarcely soluble”.
`CCCCCCCC/C=C\CCCCCCCC(=O)NCc1ccc(O)c(OC)c1` [Example 20, N-(4-hydroxy-3-methoxybenzyl)-oleoylamide]: the EC50 with RBL-2H3 cells (setting [4]) came to 6.3 µM. Besides, the solubility in data set [1] (dmso) and in data set [1] (ethanol) was more than 10000 µg/mL throughout. In data set [1], the solubility in water result is “scarcely soluble”.
For `CCCCCCCCCCCCCCCC(=O)N[C@H](CO)Cc1ccccc1` [Example 9, N-palmitoyl-[(S)-(-)-2-amino-3-phenyl-1-propanol]], the activity at 100 µM in the data set with RBL-2H3 cells (setting [6]) turned out to be 0%. Moreover, the inhibition at 100 µM in the data set on RBL-2H3 cells (setting [2]) is 100%. The “effect of anandamide co-incubation on the ability to inhibit serotonin release” value in the data set with RBL-2H3 cells (co-incubation with anandamide, in words) is recorded as “reduces the ability”. The solubility in data set [1] (chloroform) is more than 10000 µg/mL. For the same molecule, the solubility in water entry in data set [1] is listed as “scarcely soluble”.
For the molecule `CCCCCCCCCCCCCCCC(=O)NCCOC` [Example 35, N-(2-methoxy-ethyl)-palmitoylamide], the EC50 in the data set with RBL-2H3 cells (setting [4]) was found to be 6.3 µM; in the data set on RBL-2H3 cells (setting [5]), 9.2 µM. In addition, the solubility in data set [1] (ethanol) is more than 10000 µg/mL. For the same molecule, the solubility in water entry in data set [1] is given as “scarcely soluble”.
`CCCCCCCCCCCCCCCC(=O)N[C@H](C)[C@@H](O)c1ccccc1` [Example 5, N-palmitoyl-[(1S,2R)-(+)-norephedrine]]: the inhibition at 30 µM with RBL-2H3 cells (setting [2]) is 82%. Also, the inhibition at 100 µM with RBL-2H3 cells (setting [3]) stood at 100%. Further, the values for the EC50 with RBL-2H3 cells (setting [4]) and in the data set on RBL-2H3 cells (setting [5]) were 8 µM and 7.6 µM, respectively. Moreover, the solubility in data set [1] (dmso) and in data set [1] (ethanol) was more than 10000 µg/mL throughout. Further, the solubility in water entry in data set [1] was “scarcely soluble”.
As for `CCCCCCCCCCCC(=O)N1CCOCC1` [Example 36, N-lauroyl-morpholine], the activity at 100 µM in the data set with RBL-2H3 cells (setting [6]) turned out to be 51%. Moreover, the solubility in data set [1] (dmso) and in data set [1] (ethanol) was more than 10000 µg/mL each time. In addition, the solubility in water result in data set [1] is recorded as “scarcely soluble”.
As for `CCCCCCCCCCCC(=O)NCCc1ccc(O)cc1` [Example 11, N-(p-hydroxyphenylethyl)-lauroylamide], the EC50 with RBL-2H3 cells (setting [4]) stood at 26 µM. The solubility in data set [1] (dmso) and in data set [1] (ethanol) was more than 10000 µg/mL in each case. For the same molecule, the solubility in water entry in data set [1] is recorded as “scarcely soluble”.
`CCCCCCCCCCCCCCCC(=O)NCCc1ccc(O)cc1` [Example 34, N-(p-hydroxy-phenylethyl)-palmitoylamide]: the EC50 turned out to be 13 µM in the data set on RBL-2H3 cells (setting [4]) and 0.36 µM in the data set on RBL-2H3 cells (setting [5]). Also, the solubility in data set [1] (dmso) and in data set [1] (ethanol) was more than 10000 µg/mL in each case. Moreover, in data set [1], the solubility in water result is recorded as “scarcely soluble”.
Take `CCCCCCCCCCCCCCCCCC(=O)N1CCOCC1` [Example 37, N-stearoyl-morpholine]: the EC50 in the data set on RBL-2H3 cells (setting [5]) worked out at 15 µM. For the same molecule, in data set [1] (hot ethanol), the solubility is more than 10000 µg/mL. Further, in data set [1], the solubility in water result is recorded as “scarcely soluble”.
On to `CCCCCCCCCCCCCCCC(=O)N[C@@H](C)CO` [Example 31, N-palmitoyl-[S(+)-2-amino-1-propanol]], for which, in the data set on RBL-2H3 cells (setting [4]), the EC50 was 7.7 µM. Also, the figures for the solubility in data set [1] (dmso) and in data set [1] (ethanol) were more than 5000 µg/mL and more than 10000 µg/mL, respectively. Also, the solubility in water entry in data set [1] is “scarcely soluble”.
For the molecule `CCCCCCCCCCCCCCCC(=O)NC[C@H](C)O` [Example 33, N-palmitoyl-[S(+)-1-amino-2-propanol]], the EC50 in the data set on RBL-2H3 cells (setting [4]) is 4.7 µM. For the same molecule, the solubility in data set [1] (ethanol) is more than 5000 µg/mL. The solubility in water result in data set [1] is recorded as “scarcely soluble”.
`CCCCCCCCCCCCCCCC(=O)N[C@H](CO)c1ccccc1` [Example 2, N-palmitoyl-[(S)-2-amino-2-phenylethanol]]: the inhibition at 100 µM in the data set with RBL-2H3 cells (setting [2]) and in the data set with RBL-2H3 cells (setting [3]) was 100% in each case. For the same molecule, the EC50 in the data set with RBL-2H3 cells (setting [4]) came out at 1.8 µM; with RBL-2H3 cells (setting [5]) it was 5 µM. The solubility in data set [1] (dmso) and in data set [1] (ethanol) was more than 10000 µg/mL each time. Also, the solubility in water result in data set [1] is reported as “scarcely soluble”.
For the molecule `O=C(/C=C/CCCCCCCCC(=O)NCCCO)NCCCO` [Example 13, N,N'-bis(3-hydroxypropyl)-trans-2-dodecenediamide], in the data set on RBL-2H3 cells (Rattus norvegicus, RBL-2H3, read-out: 3H-serotonin release inhibition %, 0.2% DMSO, 200 μM (Table 8)), the inhibition at 200 µM amounted to 65%. Also, the EC50 in the data set with RBL-2H3 cells (setting [5]) stood at 32 µM. The solubility in data set [1] (dmso) was more than 5000 µg/mL. For the same molecule, in data set [1], the solubility in water entry is “scarcely soluble”.
`CCCCCCCCCCCCCCCC(=O)N1CCOCC1` [Example 29, N-palmitoyl-morpholine]: the inhibition at 50 µM with RBL-2H3 cells (setting [2]) came out at 36%. In addition, the inhibition at 30 µM with RBL-2H3 cells (setting [3]) stood at 88%. In addition, the figures for the EC50 with RBL-2H3 cells (setting [4]) and with RBL-2H3 cells (setting [5]) were 42 µM and 3.5 µM, respectively. Besides, the solubility in data set [1] (dmso) and in data set [1] (hot ethanol) was more than 10000 µg/mL in each case. In data set [1], the solubility in water entry is “scarcely soluble”.
On to `CCCCCCCCCCCCCCCC(=O)NC[C@@H](C)O` [Example 32, N-palmitoyl-[R(-)-1-amino-2-propanol]], for which the EC50 with RBL-2H3 cells (setting [4]) was determined as 0.73 µM. Further, in data set [1] (ethanol), the solubility was more than 5000 µg/mL. Besides, the solubility in water result in data set [1] was “scarcely soluble”.
